These are literature values, as cited in patent US10314836B2, “Quinoline carboxamides for use in the treatment of multiple myeloma” (Active Biotech AB, priority 2014, dated 2019).

Molecules are shown by their SMILES.

The data set relates to castrate resistant prostate cancer (CRPC) metastatic to the bone. The settings on record: oral treatment.

Turning to `COc1cccc2c1c(O)c(C(=O)N(C)c1ccc(C(F)(F)F)cc1)c(=O)n2C` [tasquinimod, 4-hydroxy-5-methoxy-N,1-dimethyl-2-oxo-N-[4-(trifluoromethyl)phenyl]-1,2-dihydroquinoline-3-carboxamide], the “effect on overall survival” value was “lack a sufficient effect on overall survival”.
